In the supplement of paper PMC4862054:

Columns and labels:
CAL-120 [1] = conditions: 72 h
In short: (§1)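 EC50 is the value from a fitted percent-inhibition dose-response curve, censored at the highest concentration, and rows with zero drug sensitivity score were not kept. The underlying assay seeded breast cancer cell lines in 20 µl onto 384-well plates pre-loaded with compound in 5 µl medium for 72 h. Viability was then read by CellTiter-Blue fluorescence at 560/590 nm after 2 h at 37 °C, with each plate normalised to vehicle and a positive kill control.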

MDA-MB-231 [2] = conditions: 72 h
In short: as §1

BT-474 [3] = assay: drug sensitivity score (DSS), CellTiter-Blue viability (DSS (AUC-based score)); higher = stronger viability inhibition; extreme values may be limits of the assay; conditions: incubation time: 72 h
Description: (§2)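 DSRT with the CellTiter-Blue (resazurin reduction) viability readout, fluorescence 560/590 nm, 72 h incubation. Plates were normalised to DMSO and benzethonium chloride controls. DSS is computed from the area under the fitted dose-response curve (5 or 9 concentrations).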

BT-549 = assay: as above; conditions: incubation time: 72 h
Description: as §2

CAL-120 [4] = assay: as above; conditions: incubation time: 72 h
Description: as §2

CAL-148 [5] = assay: as above; conditions: incubation time: 72 h
Description: as §2

CAL-51 = assay: as above; conditions: incubation time: 72 h
Description: as §2

CAL-85-1 = assay: as above; conditions: incubation time: 72 h
Description: as §2

DU-4475 = assay: as above; conditions: incubation time: 72 h
Description: as §2

HCC1143 [6] = assay: as above; conditions: incubation time: 72 h
Description: as §2

HCC1599 [7] = assay: as above; conditions: incubation time: 72 h
Description: as §2

HCC1937 [8] = assay: as above; conditions: incubation time: 72 h
Description: as §2

HDQ-P1 = assay: as above; conditions: incubation time: 72 h
Description: as §2

Hs578T = assay: as above; conditions: incubation time: 72 h
Description: as §2

MDA-MB-231 [9] = assay: as above; conditions: incubation time: 72 h
Description: as §2

MDA-MB-436 = assay: as above; conditions: incubation time: 72 h
Description: as §2

MDA-MB-453 = assay: as above; conditions: incubation time: 72 h
Description: as §2

MDA-MB-468 = assay: as above; conditions: incubation time: 72 h
Description: as §2

MFM-223 = assay: as above; conditions: incubation time: 72 h
Description: as §2

SK-BR-3 = assay: as above; conditions: incubation time: 72 h
Description: as §2

BT-474 [10] = assay: drug sensitivity score (DSS), CellTiter-Glo (DSS (AUC-based score)); higher = stronger drug effect (viability inhibition or cytotoxicity); extreme values may be limits of the assay; conditions: incubation time: 72 h
In short: (§3)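 A drug sensitivity score was derived from the area under each fitted dose-response curve. Breast cancer cells (20 µl suspension) were seeded onto compound in 384-well plates, using 5 concentrations 10-fold apart over a compound-specific 10,000-fold range, and incubated 72 h. Readouts were CellTox Green fluorescence and then CellTiter-Glo luminescence, with every plate normalised to 0.1 % DMSO and a positive kill control.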

CAL-148 [11] = assay: as above; conditions: incubation time: 72 h
In short: as §3

HCC1143 [12] = assay: as above; conditions: incubation time: 72 h
In short: as §3

HCC1599 [13] = assay: as above; conditions: incubation time: 72 h
In short: as §3

HCC1937 [14] = assay: as above; conditions: incubation time: 72 h
In short: as §3

MCF-10A = assay: as above; conditions: incubation time: 72 h
In short: as §3

| SMILES | EC50, CellTiter-Blue viability (CAL-120 [1]) [nM] | EC50, CellTiter-Blue viability (MDA-MB-231 [2]) [nM] | drug sensitivity score (BT-474 [3]) | drug sensitivity score (BT-549) | drug sensitivity score (CAL-120 [4]) | drug sensitivity score (CAL-148 [5]) | drug sensitivity score (CAL-51) | drug sensitivity score (CAL-85-1) | drug sensitivity score (DU-4475) | drug sensitivity score (HCC1143 [6]) | drug sensitivity score (HCC1599 [7]) | drug sensitivity score (HCC1937 [8]) | drug sensitivity score (HDQ-P1) | drug sensitivity score (Hs578T) | drug sensitivity score (MDA-MB-231 [9]) | drug sensitivity score (MDA-MB-436) | drug sensitivity score (MDA-MB-453) | drug sensitivity score (MDA-MB-468) | drug sensitivity score (MFM-223) | drug sensitivity score (SK-BR-3) | drug sensitivity score (BT-474 [10]) | drug sensitivity score (CAL-148 [11]) | drug sensitivity score (HCC1143 [12]) | drug sensitivity score (HCC1599 [13]) | drug sensitivity score (HCC1937 [14]) | drug sensitivity score (MCF-10A) |
| --- | --- | --- | --- | --- | --- | --- | --- | --- | --- | --- | --- | --- | --- | --- | --- | --- | --- | --- | --- | --- | --- | --- | --- | --- | --- | --- |
| CC(=O)c1c(C)c2cnc(Nc3ccc(N4CCNCC4)cn3)nc2n(C2CCCC2)c1=O | 12.8 | 460 | 0 | 0 | 8.76 | 0 | 5.13 | 0 | 0 | 6.22 | 0 | 0 | 0 | 2.19 | 9.09 | 0 | 8.21 | 0 | 0 | 0 |  |  |  |  |  |  |
| Cn1cc(C2=Nc3cc(NC(=O)C(N)C4CCCCC4)cc4c3C2=CNNC4=O)cn1 (stereo unspecified) |  |  |  |  |  |  |  |  |  |  |  |  |  |  |  |  |  |  |  |  | 6.46 | 0 | 7.81 | 20.3 | 4.78 | 2.96 |
| CC1(C)CCC(CN2CCN(c3ccc(C(=O)NS(=O)(=O)c4ccc(NCC5CCOCC5)c([N+](=O)[O-])c4)c(Oc4cnc5[nH]ccc5c4)c3)CC2)=C(c2ccc(Cl)cc2)C1 [ABT-199] |  |  |  |  |  |  |  |  |  |  |  |  |  |  |  |  |  |  |  |  | 0 | 0 | 0 | 0 | 0 | 0 |
| Oc1ncnc2[nH]ncc12 [Allopurinol] |  |  | 0 | 0 | 0 | 0 | 0 | 0 | 0 | 0 | 0 | 0 | 0 | 0 | 0 | 0 | 0 | 0 | 0 | 0 | 0 | 0 | 0 | 0 | 0 | 0 |
| O=C1CN2Cc3c(ccc(Cl)c3Cl)N=C2N1 [Anagrelide] |  |  | 0 | 0 | 0 | 0 | 4.77 | 0 | 0 | 0 | 0 | 2.41 | 0 | 0 | 0 | 0 | 0 | 0 | 0 | 0 | 0.269 | 0 | 0 | 0 | 0 | 0 |
| Nc1ncn([C@@H]2O[C@H](CO)[C@@H](O)[C@H]2O)c(=O)n1 [Azacitidine] | > 10000 |  | 0 | 3.42 | 0.768 | 0 | 0 | 0 | 0 | 0 | 0 | 5.11 | 0 | 3.33 | 0 | 3.01 | 0 | 11.3 | 0 | 0 | 1.74 | 0 | 0 | 1.27 | 0 | 0 |
| O=NN(CCCl)C(=O)NCCCl [Carmustine] |  |  | 0 | 0 | 0 | 0 | 0 | 0 | 0 | 0 | 0 | 0 | 0 | 0 | 0 | 0 | 0 | 0 | 0 | 0 | 0 | 0 | 0 | 0 | 0 | 0 |
| CC1=C2C[C@H]3[C@@H](CC=C4C[C@@H](O)CC[C@@]43C)[C@@H]2CC[C@]12O[C@@H]1C[C@H](C)CN[C@H]1[C@H]2C [Cyclopamine] |  |  | 0 | 0 | 0 | 0 | 0 | 0 | 0 | 0 | 0 | 0 | 0 | 0 | 0 | 0 | 0 | 0 | 0 | 0 | 0 | 0 | 0 | 0 | 0 | 0 |
| CC(=O)N(O)CCCCCNC(=O)CCC(=O)N(O)CCCCCNC(=O)CCC(=O)N(O)CCCCCN [Deferoxamine] |  |  |  |  |  |  |  |  |  |  |  |  |  |  |  |  |  |  |  |  | 0 | 9.03 | 3.11 | 1.95 | 3.29 | 0 |
| C[C@]12CC[C@@H]3c4ccc(OC(=O)N(CCCl)CCCl)cc4CC[C@H]3[C@@H]1CC[C@@H]2O [Estramustine] |  |  | 0 | 0 | 0 | 0 | 0 | 0 | 0 | 0 | 0 | 0 | 0 | 0 | 0 | 0 | 0 | 0 | 0 | 0 | 0 | 0 | 0 | 0 | 0 | 0 |
| C[C@]1(O)C[C@@H](c2nc(-c3ccc4ccc(-c5ccccc5)nc4c3)c3c(N)nccn32)C1 [Linsitinib] |  |  |  |  |  |  |  |  |  |  |  |  |  |  |  |  |  |  |  |  | 3.89 | 0 | 1.82 | 2.37 | 0 | 12.5 |
| CC1(C)CNc2cc(NC(=O)c3cccnc3NCc3ccncc3)ccc21 [Motesanib] |  |  | 0 | 0 | 0 | 0 | 0 | 0 | 0 | 0 | 0 | 0 | 0 | 0 | 0 | 0 | 0 | 0 | 0 | 0 | 0 | 0 | 0 | 0 | 0 | 0 |
| Cc1ccc([N+](=O)[O-])cc1S(=O)(=O)N(C)/N=C/c1cnc2ccc(Br)cn12 [PIK-75] |  |  |  |  |  |  |  |  |  |  |  |  |  |  |  |  |  |  |  |  | 28.5 | 19 | 24 | 23.1 | 24 | 28.4 |
| CC(=O)c1c(C)c2cnc(Nc3ccc(N4CCNCC4)cn3)nc2n(C2CCCC2)c1=O [Palbociclib] |  |  |  |  |  |  |  |  |  |  |  |  |  |  |  |  |  |  |  |  | 4.46 | 0 | 0 | 0 | 0 | 3.99 |
| CC[C@@H]1C(=O)OC[C@@H]1Cc1cncn1C [Pilocarpine] |  |  | 0 | 0 | 0 | 0 | 0 | 0 | 0 | 0 | 0 | 0 | 0 | 0 | 0 | 0 | 0.965 | 0 | 0 | 0 | 0 | 0 | 0 | 0 | 0 | 0 |
| COc1cc(F)c(F)c(Nc2ccc(I)cc2F)c1NS(=O)(=O)C1(C[C@H](O)CO)CC1 [RDEA119] | 585 | 21.3 | 0 | 0 | 7.36 | 0 | 6.65 | 10.3 | 28.1 | 8.17 | 0 | 5.85 | 11.4 | 8.25 | 18.7 | 0 | 5.64 | 4.71 | 5.52 | 0 |  |  |  |  |  |  |
| COc1cc(F)c(F)c(Nc2ccc(I)cc2F)c1NS(=O)(=O)C1(C[C@H](O)CO)CC1 [Refametinib] |  |  |  |  |  |  |  |  |  |  |  |  |  |  |  |  |  |  |  |  | 8.51 | 2.69 | 2.8 | 0 | 4.08 | 23.6 |
| Cn1cnc2c(F)c(Nc3ccc(Br)cc3Cl)c(C(=O)NOCCO)cc21 [Selumetinib] | 7500 | 214 | 0 | 0 | 0.649 | 0 | 0.877 | 6.78 | 25.4 | 12.6 | 3.63 | 2.95 | 4.32 | 1.17 | 13.7 | 0 | 0 | 0 | 0 | 0 | 7.93 | 0 | 0 | 0.803 | 0 | 17.3 |
